Measurements taken from patent US10696692B2, “Amido-benzyl sulfone and sulfoxide derivates” (Forma TM, LLC, priority 2012, dated 2020).
pIC50: −log10 of the molar value. Where two headings read alike, the source gives them in different places.

Tests used:
A2780 cells = assay: Assay 2: In-Vitro Cell Proliferation Assay (A2780 cells, SRB readout, 72 hours); assay type: cell-based; settings: A2780 cells, 72 hours, SRB, read-out: Cell Proliferation (IC50);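 further: viable cells counted via sulforhodamine B staining, absorbance at 570 nm, after 72 h exposure at 37 °C, DMSO 0.1% as control, media-only background subtracted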
NAMPT = NAMPT (Homo sapiens (Human), UniProt P43490); assay: Assay 1: Biochemical Inhibition Assay (NAMPT enzymatic reaction, NMN quantified by mass spectrometry); settings: read-out: Biochemical (IC50);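 further: recombinant His-tagged human NAMPT preincubated with compound 15 min, then reacted 30 min at rt with 1 µM NAM, 100 µM PRPP, 2.5 mM ATP, NMN product read by RapidFire MS, normalized to L-Cystathionine internal standard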
Sequence of NAMPT (P43490 whole entry): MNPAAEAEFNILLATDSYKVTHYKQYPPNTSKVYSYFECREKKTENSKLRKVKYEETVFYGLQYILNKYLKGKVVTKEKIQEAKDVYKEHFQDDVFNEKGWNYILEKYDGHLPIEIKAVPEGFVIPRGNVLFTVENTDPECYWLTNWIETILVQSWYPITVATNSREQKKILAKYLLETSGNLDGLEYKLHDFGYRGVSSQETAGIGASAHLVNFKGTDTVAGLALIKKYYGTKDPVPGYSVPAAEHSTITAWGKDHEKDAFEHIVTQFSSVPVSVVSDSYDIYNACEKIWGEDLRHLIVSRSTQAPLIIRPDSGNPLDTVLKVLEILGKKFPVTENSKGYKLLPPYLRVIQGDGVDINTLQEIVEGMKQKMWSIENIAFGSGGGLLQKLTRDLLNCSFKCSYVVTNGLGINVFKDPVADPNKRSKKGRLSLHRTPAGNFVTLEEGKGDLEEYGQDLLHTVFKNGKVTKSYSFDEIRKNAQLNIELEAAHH

| Molecule | pIC50 (A2780 cells; Homo sapiens, A2780, 72 h) | pIC50 (NAMPT) | pIC50 (A2780 cells) |
| --- | --- | --- | --- |
| N[C@H]1C[C@H]2CC[C@@H](C1)N2S(=O)(=O)c1ccc(CNC(=O)c2cc3ccncc3s2)cc1 [Example 44, Thieno[2,3-c]pyridine-2-carboxylic acid 4-((1R,3R,5S)-3-amino-8-aza-bicyclo[3.2.1]octane-8-sulfonyl)-benzylamide] | 7.63 | 8.24 |  |
| tert-butyl 7-[4-[(imidazo[1,2- a]pyridine-6- carbonylamino)methyl]phenyl] sulfonyl-1,7- diazaspiro[4.4]nonane-1- carboxylate [Example 236] |  | 7.88 | 8.75 |
| O=C(NCc1ccc(S(=O)(=O)[C@@H]2CCOC2)cc1)c1cnc2nccn2c1 [Example 80, Imidazo[1,2-a]pyrimidine-6-carboxylic acid 4-[(R)-(tetrahydro-furan-3-yl)sulfonyl]-benzylamide] |  | 8.05 | 6.34 |
| O=C(NCc1ccc(S(=O)(=O)N2CCC(CO)CC2)cc1)c1ccc2nccn2c1 [Example 96, Imidazo[1,2-a]pyridine-6-carboxylic acid 4-(4-hydroxymethyl-piperidine-1-sulfonyl)-benzylamide] | 8.03 | 7.61 |  |
| O=C(NCc1ccc(S(=O)(=O)N2CCC[C@@H](O)C2)cc1)c1cc2ccncc2o1 [Example 151, Furo[2,3-c]pyridine-2-carboxylic acid 4-((R)-3-hydroxy-piperidine-1-sulfonyl)-benzylamide] | 7.35 | 7.56 |  |
| CS(=O)(=O)N1CCC(S(=O)(=O)c2ccc(CNC(=O)c3cnc4[nH]ncc4c3)cc2)C1 (stereo not shown) [Example 354, N-[[4-(1-methylsulfonylpyrrolidin-3-yl)sulfonylphenyl]methyl]-1H-pyrazolo[3,4-b]pyridine-5-carboxamide] | 6.14 | 6.38 |  |
| CC(C)(C)OC(=O)N1CCC2(CCN(S(=O)(=O)c3ccc(CNC(=O)c4ccc5nccn5c4)cc3)CC2)C1 [Example 103, 8-(4-{[(Imidazo[1,2-a]pyridine-6-carbonyl)-amino]-methyl}-benzenesulfonyl)-2,8-diaza-spiro[4.5]decane-2-carboxylic acid tert-butyl ester] | 7.40 | 7.53 |  |
| CN1C[C@H]2C[C@@H](C1)N(S(=O)(=O)c1ccc(CNC(=O)c3ccc4nccn4c3)cc1)C2 (racemic) [Example 165, cis-Imidazo[1,2-a]pyridine-6-carboxylic acid 4-(3-methyl-3,6-diaza-bicyclo[3.2.1]octane-6-sulfonyl)-benzylamide] | 7.66 | 7.02 |  |
| O=C(NCc1ccc(S(=O)(=O)N2C[C@@H]3C[C@H]2CC3(F)F)cc1)c1ccc2nccn2c1 (racemic) [Example 141, cis-Imidazo[1,2-a]pyridine-6-carboxylic acid 4-(5,5-difluoro-2-aza-bicyclo[2.2.1]heptane-2-sulfonyl)-benzylamide] | 8.02 | 7.83 |  |
| O=C(NCc1ccc(S(=O)(=O)C2CCN(C(=O)c3ccccc3)C2)cc1)c1cnc2[nH]ncc2c1 (stereo not shown) [Example 351, N-[[4-(1-benzoylpyrrolidin-3-yl)sulfonylphenyl]methyl]-1H-pyrazolo[3,4-b]pyridine-5-carboxamide] | 6.97 | 7.15 |  |
| O=C(NCc1ccc(S(=O)(=O)C2CCN(C3COC3)CC2)cc1)c1cc2cnccc2[nH]1 [Example 115, 1H-Pyrrolo[3,2-c]pyridine-2-carboxylic acid 4-(1-oxetan-3-yl-piperidine-4-sulfonyl)-benzylamide] | 7.94 | 7.43 |  |
| C[C@@H]1CN(S(=O)(=O)c2ccc(CNC(=O)c3cc4ccncc4o3)cc2)C[C@H](C)N1C1COC1 [Example 286, N-[[4-[(3S,5R)-3,5-dimethyl-4-(oxetan-3-yl)piperazin-1-yl]sulfonylphenyl]methyl]furo [2,3-c]pyridine-2-carboxamide] | 9.31 | 7.84 |  |
| COC1CCN(S(=O)(=O)c2ccc(CNC(=O)c3cc4ccncc4o3)cc2)CC1 [Example 7, Furo[2,3-c]pyridine-2-carboxylic acid 4-(4-methoxy-piperidine-1-sulfonyl)-benzylamide] | 7.88 | 7.96 |  |
| O=C(NCc1ccc(S(=O)(=O)N2CCOCC2)cc1)c1ccc2nccn2c1 [Example 10, Imidazo[1,2-a]pyridine-6-carboxylic acid 4-(morpholine-4-sulfonyl)-benzylamide] | 7.83 | 7.60 |  |
| O=C(NCc1ccc(S(=O)(=O)N2CC3CCC(C2)O3)cc1)c1cc2ccncc2o1 [Example 305, N-[[4-(8-oxa-3-azabicyclo[3.2.1]octan-3-ylsulfonyl)phenyl]methyl]furo [2,3-c]pyridine-2-carboxamide] | 7.75 | 7.38 |  |
| CC(C)CN1CCC([S+]([O-])c2ccc(CNC(=O)N3Cc4ccncc4C3)cc2)CC1 (stereo not shown) [Example 374, N-[(4-[(1-isobutyl-4-piperidyl)sulfinyl]phenyl]methyl]-1,3-dihydropyrrolo[3,4-c]pyridine-2-carboxamide] | 8.55 | 7.82 |  |
| O=C(NCc1ccc(S(=O)(=O)N2CC3(CCCO3)C2)cc1)c1ccc2nccn2c1 [Example 274, N-[(4-(5-oxa-2-azaspiro[3.4]octan-2-ylsulfonyl)phenyl]methyl] imidazo[1,2-a]pyridine-6-carboxamide] | 8.23 | 7.72 |  |

| Molecule | pIC50 (A2780 cells; Homo sapiens, A2780, 72 h) | pIC50 (NAMPT) | pIC50 (A2780 cells) |
| --- | --- | --- | --- |
| O=C(NCc1ccc(S(=O)(=O)N2CCC[C@H](O)C2)cc1)c1cc2cnccc2[nH]1 [Example 52, 1H-Pyrrolo[3,2-c]pyridine-2-carboxylic acid 4-((S)-3-hydroxy-piperidine-1-sulfonyl)-benzylamide] | 7.73 | 7.56 |  |
| O=C(NCc1ccc(S(=O)(=O)N2CC(F)(F)C2)cc1)c1cc2ccncc2o1 [Example 301, N-[[4-(3,3-difluoroazetidin-1-yl)sulfonylphenyl]methyl]furo [2,3-c]pyridine-2-carboxamide] | 7.08 | 7.33 |  |
| COCCN1CCN(S(=O)(=O)c2ccc(CNC(=O)c3ccc4nccn4c3)cc2)CC1 [Example 98, Imidazo[1,2-a]pyridine-6-carboxylic acid 4-[4-(2-methoxy-ethyl)-piperazine-1-sulfonyl]-benzylamide] | 8.00 | 7.34 |  |
| O=C(NCc1ccc(S(=O)(=O)N2CCC3OCCC3C2)cc1)c1ccc2nccn2c1 (stereo not shown) [Example 146, Imidazo[1,2-a]pyridine-6-carboxylic acid 4-(hexahydro-furo[3,2-c]pyridine-5-sulfonyl)-benzylamide] | 8.51 | 7.90 |  |
| O=C(NCc1ccc(S(=O)(=O)N2CC3(CCOCC3)C2)cc1)c1ccc2nccn2c1 [Example 218, N-[[4-(7-oxa-2-azaspiro[3.5]nonan-2-ylsulfonyl)phenyl]methyl] imidazo[1,2-a]pyridine-6-carboxamide] | 8.46 | 7.99 |  |
| O=C(NCc1ccc(S(=O)(=O)N2CCC3(CCCO3)C2)cc1)c1ccc2nccn2c1 (stereo not shown) [Example 219, N-[[4-(1-oxa-7-azaspiro[4.4]nonan-7-ylsulfonyl)phenyl]methyl] imidazo[1,2-a]pyridine-6-carboxamide] | 8.66 | 8.07 |  |
| O=C(NCc1ccc(S(=O)(=O)[C@H]2CCOC2)cc1)c1ccc2nccn2c1 [Example 223, N-[[4-[(3S)-tetrahydrofuran-3-yl]sulfonylphenyl]methyl] imidazo[1,2-a]pyridine-6-carboxamide] | 6.98 | 7.19 |  |
| O=C(NCc1ccc(S(=O)(=O)C2CCN(S(=O)(=O)c3ccccc3)CC2)cc1)c1cnc2[nH]ncc2c1 [Example 352, N-[[4-[[1-(benzenesulfonyl)-4-piperidyl]sulfonyl]phenyl]methyl]-1H-pyrazolo[3,4-b]pyridine-5-carboxamide] | 7.69 | 7.74 |  |
| CC(C)(C)OC(=O)N1CCCCC12CCCN(S(=O)(=O)c1ccc(CNC(=O)c3ccc4nccn4c3)cc1)C2 (racemic) [Example 123] | 7.76 | 7.43 |  |
| CC(C)CN1CCC([S+]([O-])c2ccc(CNC(=O)c3cnc4[nH]ncc4c3)cc2)CC1 (racemic) [Example 181, 1H-Pyrazolo[3,4-b]pyridine-5-carboxylic acid 4-(1-isobutyl-piperidine-4-sulfinyl)-benzylamide] | 7.64 | 6.89 |  |
| O=C(NCc1ccc(S(=O)(=O)[C@@H]2CCOC2)cc1)c1ccc2nccn2c1 [Example 227, N-[[4-((3R)-tetrahydrofuran-3-yl]sulfonylphenyl]methyl] imidazo[1,2-a]pyridine-6-carboxamide] | 7.01 | 7.29 |  |
| O=C(NCc1ccc(S(=O)(=O)N2CC3COCC3C2)cc1)c1cnc2[nH]ncc2c1 (stereo not shown) [Example 158, 1H-Pyrazolo[3,4-b]pyridine-5-carboxylic acid 4-(tetrahydro-furo[3,4-c]pyrrole-5-sulfonyl)-benzylamide] | 6.74 |  |  |
| O=C(NCc1ccc(S(=O)(=O)N2CCCCC2)cc1)c1cnc2cn[nH]c2c1 [Example 49, 1H-Pyrazolo[4,3-b]pyridine-6-carboxylic acid 4-(piperidine-1-sulfonyl)-benzylamide] |  | 5.70 |  |
| CC(C)N1CCN(S(=O)(=O)c2ccc(CNC(=O)c3ccc4nccn4c3)cc2)CC1 [Example 18, Imidazo[1,2-a]pyridine-6-carboxylic acid 4-(4-isopropyl-piperazine-1-sulfonyl)-benzylamide] | 7.89 |  |  |
| CCN1CCC([S+]([O-])c2ccc(CNC(=O)c3ccc4nccn4c3)cc2)CC1 (stereo not shown) [Example 370, N-[[4-[(1-ethyl-4-piperidyl)sulfinyl]phenyl]methyl]imidazo[1,2-a]pyridine-6-carboxamide] | 7.87 |  |  |
| O=C(NCc1ccc(S(=O)(=O)N2CCC(N3CCCC3)CC2)cc1)c1cnc2[nH]ncc2c1 [Example 156, 1 H-Pyrazolo[3,4-b]pyridine-5-carboxylic acid 4-(4-pyrrolidin-1-yl-piperidine-1-sulfonyl)-benzylamide] | 7.45 |  |  |
